The record followed here is patent US20230279000A1, “PYRIDOPYRIMIDINE DERIVATIVES USEFUL IN MODULATION OF AHR SIGNALLING” (JAGUAHR THERAPEUTICS PTE LTD, priority 2020, published 2023).

Where a name gives a salt, the structure may show the parent alone.

Experiment [1] deals with T1, AhR (Homo sapiens, UniProt P35869).
T1 construct: PBMCs were isolated from human peripheral blood using Lymphoprep; endogenous in cells
T1 sequence (P35869 11-848): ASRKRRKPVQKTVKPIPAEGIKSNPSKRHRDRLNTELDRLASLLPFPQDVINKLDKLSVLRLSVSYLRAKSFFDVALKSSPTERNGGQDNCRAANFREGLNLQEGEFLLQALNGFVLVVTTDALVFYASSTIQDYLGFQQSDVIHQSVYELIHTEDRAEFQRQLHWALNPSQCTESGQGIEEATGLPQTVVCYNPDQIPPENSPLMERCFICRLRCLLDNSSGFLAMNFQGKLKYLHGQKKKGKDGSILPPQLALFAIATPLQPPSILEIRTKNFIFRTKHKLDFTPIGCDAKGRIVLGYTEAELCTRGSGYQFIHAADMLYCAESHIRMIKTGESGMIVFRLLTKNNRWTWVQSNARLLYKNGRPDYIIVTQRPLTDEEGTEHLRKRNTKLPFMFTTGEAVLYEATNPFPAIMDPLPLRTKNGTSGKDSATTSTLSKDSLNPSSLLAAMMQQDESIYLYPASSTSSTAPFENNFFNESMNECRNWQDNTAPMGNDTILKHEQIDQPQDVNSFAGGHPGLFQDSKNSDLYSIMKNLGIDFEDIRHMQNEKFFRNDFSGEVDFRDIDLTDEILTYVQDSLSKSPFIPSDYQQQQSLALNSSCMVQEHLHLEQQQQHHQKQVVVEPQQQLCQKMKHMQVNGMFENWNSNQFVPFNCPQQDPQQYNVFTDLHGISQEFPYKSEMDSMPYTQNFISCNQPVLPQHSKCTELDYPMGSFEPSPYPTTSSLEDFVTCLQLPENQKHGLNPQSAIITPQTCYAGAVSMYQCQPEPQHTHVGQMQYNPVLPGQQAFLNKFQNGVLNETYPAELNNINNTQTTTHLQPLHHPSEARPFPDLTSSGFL
The experiment in a line: AhR antagonism in U937 cells (Promega P450-Glo assay). Format: cell-based. Conditions: inhibition of 4.5 nM VAF347 agonist response, CYP1A1 activity (Luciferin-CEE) after 24 hrs, arithmetic mean of two or more tests, read-out: U937 Assay (pIC50) (converted). As to the method: (§1) Examples were tested in selected biological assays two or more times. Data are reported as the arithmetic mean of the pIC50 (-log10IC50) values, where IC50 is defined as the concentration of compound producing a 50% inhibition of the agonist response. In the case of the U937 assay, VAF347 was used as the agonist; in the peripheral blood mononuclear cell (PBMC) assay the effects of the test compounds are assessed against endogenously produced AhR agonists generated following PBMC activation.
In Vitro Assay 1: AhR Antagonism in U937 Cells (Promega P450-Glo™ Assay)
AhR antagonism was assessed in U937 cells (myeloid lineage cell line derived from a human histiocytic lymphoma). Ligand binds the AhR in the cytoplasm, and the AhR-ligand complex translocates to the nucleus and forms a heterodimer with AhR nuclear translocator (Arnt). This complex binds the xenobiotic response element (XRE) in the 5′ upstream region of the CYP1A1 promoter, enhancing CYP1A1 expression. CYP1A1 activity is subsequently determined by assessing the conversion of Luciferin-CEE to luciferin, which in turn reacts with luciferase to produce light. The amount of light produced is directly proportional to cytochrome P450 activity.
U937 cells in Ultraculture serum free media (Lonza) were plated at 100,000 cells per well in a round bottom 96 well tissue culture plate. Seven concentrations of test compound (final [DMSO] 1%) were added and incubated for 10 minutes before the addition of 4.5 nM VAF347. The plates were then placed in an incubator at 37° C., ≥ 85% humidity, 5% CO2 for 24 hrs. After aspiration of the supernatant the CYP1A1 substrate Luciferin-CEE ([Final] 83 µM) was added and incubated for 3 hrs before the reaction was stopped by adding luciferin detection reagent and luminescence was read after 20 minutes.

Experiment [2] addresses T1, AhR. The experiment in a line: AhR antagonism in human PBMCs - inhibition of interleukin-22 (IL-22) release. Format: cell-based. Conditions: human PBMCs activated with CD3/CD28 agonist; IL-22 release after 72 hrs, against endogenously produced AhR agonists; arithmetic mean of two or more tests; read-out: PBMC Assay (pIC50) (converted). The procedure: as §1
In Vitro Assay 2: AhR Antagonism in Human Peripheral Blood Mononuclear Cells (PBMCS) -Inhibition of Interleukin-22 (IL-22) Release
PBMCs were isolated from human peripheral blood using Lymphoprep™ and diluted to 1 × 10^6 cells per ml in RPMI media containing 10% foetal bovine serum, 1% penicillin-streptomycin and 1% non-essential amino acids. PBMCs were subsequently activated with 1 µl per 100,000 cells of a CD3/CD28 agonist mixture (human T Cell TransAct™(Miltenyi Biotec)) and then plated at 100,000 cells per well in a round bottom 96 well tissue culture plate. One hour after stimulation seven concentrations of each test compound or vehicle (final [DMSO] 0.2%) were added. The plates were then placed in an incubator at 37° C., ≥ 85% humidity, 5% CO2 for 72 hrs before the media was removed and stored at -20° C. until cytokine analysis. IL-22 was measured using human IL-22 DuoSet ELISA (R&D systems) according to the manufacturer’s instructions.

Consider `COc1ccc2c(CCNc3nc(-c4cncc(F)c4)nc4c3CCNC4)c[nH]c2c1` [Example 1, 2-(5-fluoropyridin-3-yl)-N-[2-(6-methoxy-1H-indol-3-yl)ethyl]-5H,6H,7H,8H-pyrido[3,4-d]pyrimidin-4-amine], for which the IC50 in experiment [1] and in experiment [2] was 0.126 µM throughout.

As to `COc1ccc2c(CCNc3nc(-c4cncc(F)c4)nc4c3CNC4)c[nH]c2c1` [Example 5, 2-(5-fluoropyridin-3-yl)-N-[2-(6-methoxy-1H-indol-3-yl)ethyl]-5H,6H,7H-pyrrolo[3,4-d]pyrimidin-4-amine], the results for the IC50 in experiment [1] and in experiment [2] were 0.2 µM and 0.398 µM, respectively.

Take `COc1cncc(-c2nc3c(c(NCCc4c[nH]c5ccccc45)n2)CCNC3)c1` [Example 9, N-[2-(1H-indol-3-yl)ethyl]-2-(5-methoxypyridin-3-yl)-5H,6H,7H,8H-pyrido[3,4-d]pyrimidin-4-amine]: the figures for the IC50 in experiment [1] and in experiment [2] were 0.02 µM and 0.794 µM, respectively.

On to `FC(F)(F)c1cncc(-c2nc3c(c(NCCc4c[nH]c5ccccc45)n2)CCNC3)c1` [Example 10, N-[2-(1H-indol-3-yl)ethyl]-2-[5-(trifluoromethyl)pyridin-3-yl]-5H,6H,7H,8H-pyrido[3,4-d]pyrimidin-4-amine], for which the values for the IC50 in experiment [1] and in experiment [2] were 0.0251 µM and 0.794 µM, respectively.

On to `COc1ccc2[nH]c(C)c(CCNc3nc(-c4cncc(F)c4)nc4c3CCNC4)c2c1` [Example 14, 2-(5-Fluoropyridin-3-yl)-4-{[2-(5-Methoxy-2-Methyl-1H-Indol-3-yl)Ethyl]Amino}-5H,6H,7H,8H-Pyrido[3,4-d]Pyrimidin-7-ium Chloride], for which the IC50 in experiment [1] was 0.1 µM; in experiment [2] it was 0.631 µM.

As to `CCN1CCc2nc(-c3cncc(F)c3)nc(NCCc3c[nH]c4cc(OC)ccc34)c2CC1` [Example 15, 7-ethyl-2-(5-fluoropyridin-3-yl)-N-[2-(6-methoxy-1H-indol-3-yl)ethyl]-5H,6H,7H,8H,9H-pyrimido[4,5-d]azepin-4-amine], the IC50 in experiment [1] is 0.158 µM; in experiment [2], 0.631 µM.

As to `COc1ccc2c(CCNc3nc(-c4cncc(F)c4)nc4c3CCNCC4)c[nH]c2c1` [Example 16, 2-(5-fluoropyridin-3-yl)-N-[2-(6-methoxy-1H-indol-3-yl)ethyl]-5H,6H,7H,8H,9H-pyrimido[4,5-d]azepin-4-amine], the figures for the IC50 in experiment [1] and in experiment [2] were 0.316 µM and 0.2 µM, respectively.

Consider `COc1ccc2c(CCOc3nc(-c4cncc(F)c4)nc4c3CCNC4)c[nH]c2c1` [Example 17, 3-(2-{[2-(5-Fluoropyridin-3-yl)-5H,6H,7H,8H-Pyrido[3,4-d]Pyrimidin-4-yl]Oxy}Ethyl)-6-Methoxy-1H-Indole Hydrochloride], for which the IC50 is 0.0501 µM in experiment [1] and 0.0251 µM in experiment [2].

Turning to `Fc1cncc(-c2nc3c(c(NCCc4c(C(F)(F)F)[nH]c5ccccc45)n2)CCNC3)c1` [Example 18, 2-(5-Fluoropyridin-3-yl)-4-({2-[2-(Trifluoromethyl)-1H-Indol-3-yl]Ethyl}Amino)-5H,6H,7H,8H-Pyrido[3,4-d]Pyrimidin-7-ium Chloride], the IC50 is 0.02 µM in experiment [1] and 0.316 µM in experiment [2].
